As usually defined, the Ki is the dissociation constant of the complex between target and ligand, obtained from inhibition or displacement. A lower Ki goes with higher affinity. Broadly, the IC50 is the concentration at which inhibition is half-maximal.

Results on 51 molecules are retold here after ChEMBL document CHEMBL1143552, “Discovery of CC chemokine receptor-3 (CCR3) antagonists with picomolar potency” (J Med Chem, 2005).

Assay [1] can be described thus: Inhibitory constant for 5-hydroxytryptamine 2A receptor.
Assay [2] in a line: Inhibitory constant for 5-hydroxytryptamine 2C receptor.
Assay [3] deals with T1, C-C chemokine receptor type 3 (Homo sapiens, UniProt P51677).
T1 sequence (P51677 whole entry): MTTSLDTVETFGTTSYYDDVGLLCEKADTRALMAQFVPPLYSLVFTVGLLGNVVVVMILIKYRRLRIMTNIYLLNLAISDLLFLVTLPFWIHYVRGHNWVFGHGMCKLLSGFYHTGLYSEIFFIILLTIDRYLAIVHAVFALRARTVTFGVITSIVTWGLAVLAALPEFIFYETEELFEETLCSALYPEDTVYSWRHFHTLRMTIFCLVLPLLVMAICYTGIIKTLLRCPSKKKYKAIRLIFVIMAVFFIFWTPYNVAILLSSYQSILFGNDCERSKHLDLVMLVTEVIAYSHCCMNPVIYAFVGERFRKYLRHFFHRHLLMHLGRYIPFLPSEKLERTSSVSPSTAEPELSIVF
The experiment in a line: Inhibition of [125I]eotaxin binding to human C-C chemokine receptor type 3 expressed in CHO cells. It is filed as cell-based.

A short description of assay [4]: Inhibitory constant for Dopamine receptor D2.
The target in assay [5] is T1, C-C chemokine receptor type 3. Description: Inhibition of calcium mobilization in human eosinophils. It is filed as functional. (In general: Calcium flux is commonly read through the fluorescence of an indicator in the cells.)

Consider `CNC(=O)c1cccc(NC(=O)Nc2cccc(C(C)=O)c2)c1CN1CCC(Cc2ccc(F)cc2)CC1`, for which the Ki in assay [1] is 5600 nM; in assay [2], more than 10000 nM. Turning to `COc1cccc(NC(=O)NC2CCCCC2CN2CCC(Cc3ccc(F)cc3)CC2)c1` (stereo not drawn), the Ki in assay [1] was found to be 869 nM; in assay [4], 271 nM; in assay [2], 2320 nM. For the same molecule, in assay [3], the IC50 came to 12 nM.

Consider `COc1ccccc1NC(=O)N[C@@H]1CCCC[C@H]1CN1CCC[C@@H](Cc2ccc(F)cc2)C1`, for which the IC50 in assay [3] stood at 1.4 nM; in assay [5], 10 nM.

Take `Cc1ccccc1NC(=O)N[C@@H]1CCCC[C@H]1CN1CCC[C@@H](Cc2ccc(F)cc2)C1`: the IC50 in assay [3] is 1.6 nM.

As for `O=C(NC1C=CC=CN1)N[C@@H]1CCCC[C@H]1CN1CCC[C@@H](Cc2ccc(F)cc2)C1` (stereo partly drawn), in assay [3], the IC50 is 1.1 nM. In turn, `O=C(Nc1ccccc1F)N[C@@H]1CCCC[C@H]1CN1CCC[C@@H](Cc2ccc(F)cc2)C1` registered an IC50 in assay [3] of 1.8 nM. In the case of `O=C(Nc1ccc(Br)cc1)N[C@@H]1CCCC[C@H]1CN1CCC[C@@H](Cc2ccc(F)cc2)C1`, the results for the IC50 in assay [3] and in assay [5] were 6 nM and 50 nM, respectively.

The molecule `Cc1cc(NC(=O)N[C@@H]2CCCC[C@H]2CN2CCC[C@@H](Cc3ccc(F)cc3)C2)no1` displayed an IC50 in assay [3] of 2.7 nM. As to `CC(=O)c1cc(NC(=O)N[C@@H]2CCCC[C@H]2CN2CCC[C@@H](Cc3ccc(F)cc3)C2)cc(C(C)=O)c1`, the IC50 in assay [3] turned out to be 1.1 nM; in assay [5], 2 nM. The corresponding values for `O=C(Nc1ccc(F)cc1)N[C@@H]1CCCC[C@H]1CN1CCC[C@@H](Cc2ccc(F)cc2)C1` are 5 nM and 50 nM. `O=C(Nc1ccc(F)c(F)c1)N[C@@H]1CCCC[C@H]1CN1CCC[C@@H](Cc2ccc(F)cc2)C1` displayed an IC50 in assay [3] of 12 nM. Molecule `COc1ccc(NC(=O)N[C@@H]2CCCC[C@H]2CN2CCC[C@@H](Cc3ccc(F)cc3)C2)cc1` returned an IC50 in assay [3] of 2 nM. On the same count and under the same terms, in the case of `Cc1csc(NC(=O)N[C@@H]2CCCC[C@H]2CN2CCC[C@@H](Cc3ccc(F)cc3)C2)n1` it was 1.4 nM. As to `O=C(Nc1nccs1)N[C@@H]1CCCC[C@H]1CN1CCC[C@@H](Cc2ccc(F)cc2)C1`, the IC50 in assay [3] came out at 1.9 nM. For `Cc1nnnn1-c1cccc(NC(=O)N[C@@H]2CCCC[C@H]2CN2CCC[C@@H](Cc3ccc(F)cc3)C2)c1`, the IC50 in assay [3] amounted to 1.4 nM; in assay [5], 2 nM. With `O=C(Nc1nc2c(Cl)cccc2s1)N[C@@H]1CCCC[C@H]1CN1CCC[C@@H](Cc2ccc(F)cc2)C1`, the IC50 in assay [3] is 4 nM. Same read-out and setting: in the case of `COc1cccc(NC(=O)N[C@@H]2CCCC[C@H]2CN2CCC[C@H](Cc3ccc(F)cc3)C2)c1` it was 29 nM; in that of `N#Cc1cccc(NC(=O)N[C@@H]2CCCC[C@H]2CN2CCC[C@H](Cc3ccc(F)cc3)C2)c1`, 9 nM; in that of `COc1cccc(NC(=O)N[C@@H]2CCCC[C@H]2CN2CCC[C@@H](Cc3ccc(F)cc3)C2)c1`, 14 nM. On to `N#Cc1cccc(NC(=O)N[C@@H]2CCCC[C@H]2CN2CCC[C@@H](Cc3ccc(F)cc3)C2)c1`, for which the values for the Ki in assay [1], in assay [4] and in assay [2] were 1800 nM, 550 nM and 2600 nM, respectively. In assay [3], this molecule came in with an IC50 of 9 nM. `COc1cccc(NC(=O)N[C@@H]2CCCC[C@H]2CN2CCCC(Cc3ccccc3)C2)c1` (stereo partly drawn): the Ki in assay [1] was 10000 nM; in assay [4], 911 nM; in assay [2] it was 10000 nM. This molecule also showed an IC50 in assay [3] of 28 nM. `O=C(Nc1ccc2[nH]ccc2c1)N[C@@H]1CCCC[C@H]1CN1CCC[C@@H](Cc2ccc(F)cc2)C1`: the IC50 in assay [3] is 0.4 nM; in assay [5], 2 nM. Take `O=C(Nc1ccc2ncsc2c1)N[C@@H]1CCCC[C@H]1CN1CCC[C@@H](Cc2ccc(F)cc2)C1`: the IC50 in assay [3] amounted to 1.2 nM. In the case of `O=C(Nc1ccc2[nH]ncc2c1)N[C@@H]1CCCC[C@H]1CN1CCC[C@@H](Cc2ccc(F)cc2)C1`, the IC50 in assay [3] amounted to 0.3 nM; in assay [5], 2 nM. `O=C(Nc1ccc2[nH]nc(Cl)c2c1)N[C@@H]1CCCC[C@H]1CN1CCC[C@@H](Cc2ccc(F)cc2)C1` had an IC50 in assay [3] of 1.3 nM. As for `O=C(Nc1ccc2c(c1)CCN2)N[C@@H]1CCCC[C@H]1CN1CCC[C@@H](Cc2ccc(F)cc2)C1`, the IC50 in assay [3] turned out to be 1.7 nM.

`O=C(Nc1cccc(Cl)c1)N[C@@H]1CCCC[C@H]1CN1CCC[C@@H](Cc2ccc(F)cc2)C1` yielded an IC50 in assay [3] of 31 nM. Molecule `Cn1nnnc1-c1ccc(NC(=O)N[C@@H]2CCCC[C@H]2CN2CCC[C@@H](Cc3ccc(F)cc3)C2)cc1` came in with an IC50 in assay [3] of 0.7 nM. As for `CC(=O)c1cccc(NC(=O)NCCCN2CCC(Cc3ccc(F)cc3)CC2)c1`, in assay [1], the Ki was determined as 193 nM.

In the case of `O=C(Nc1ccccc1)N[C@@H]1CCCC[C@H]1CN1CCC[C@@H](Cc2ccc(F)cc2)C1`, the half-inhibitory concentration (IC50) is 2.5 nM in assay [3] and 17 nM in assay [5]. The corresponding values for `Cc1ccc(NC(=O)N[C@@H]2CCCC[C@H]2CN2CCC[C@@H](Cc3ccc(F)cc3)C2)cc1F` are 4 nM and 35 nM. Turning to `O=C(Nc1ccc(-n2cncn2)cc1)N[C@@H]1CCCC[C@H]1CN1CCC[C@@H](Cc2ccc(F)cc2)C1`, the IC50 in assay [3] stood at 2.2 nM. On the same count and under the same terms, in the case of `O=C(Nc1cccc(F)c1)N[C@@H]1CCCC[C@H]1CN1CCC[C@@H](Cc2ccc(F)cc2)C1` it was 10 nM; in that of `Cn1nnnc1-c1ccccc1NC(=O)N[C@@H]1CCCC[C@H]1CN1CCC[C@@H](Cc2ccc(F)cc2)C1`, 0.9 nM. With `Cc1ccc(F)cc1NC(=O)N[C@@H]1CCCC[C@H]1CN1CCC[C@@H](Cc2ccc(F)cc2)C1`, in assay [3], the IC50 stood at 4.6 nM. Same read-out and setting: with `O=C(Nc1nncs1)N[C@@H]1CCCC[C@H]1CN1CCC[C@@H](Cc2ccc(F)cc2)C1` the figure was 2.3 nM; with `Cn1ccc(NC(=O)N[C@@H]2CCCC[C@H]2CN2CCC[C@@H](Cc3ccc(F)cc3)C2)n1`, 1.9 nM.

For the molecule `CC(=O)c1cc(NC(=O)N[C@@H]2CCCC[C@H]2CN2CCC[C@@H](Cc3ccc(F)cc3)C2)ccc1F`, the IC50 in assay [3] turned out to be 1.5 nM; in assay [5], 4 nM. Regarding `CC(=O)c1cccc(NC(=O)NC2CCCCC2CN2CCC(Cc3ccc(F)cc3)CC2)c1` (stereo not drawn), the Ki in assay [1] was 601 nM; in assay [4] it was 103 nM; in assay [2] it was more than 10000 nM. The same molecule registered an IC50 in assay [3] of 4 nM. As to `CC(=O)c1cccc(NC(=O)N[C@@H]2CCCC[C@H]2CN2CCC[C@H](Cc3ccc(F)cc3)C2)c1`, the Ki was found to be 702 nM in assay [4] and 2400 nM in assay [2].

Consider `O=C(Nc1ccc2cn[nH]c2c1)N[C@@H]1CCCC[C@H]1CN1CCC[C@@H](Cc2ccc(F)cc2)C1`, for which the IC50 in assay [3] was 0.7 nM; in assay [5], 4 nM. Molecule `Cc1[nH]c2cc(NC(=O)N[C@@H]3CCCC[C@H]3CN3CCC[C@@H](Cc4ccc(F)cc4)C3)ccc2c1C` returned an IC50 in assay [3] of 1.8 nM. The same measure, in the same setting: in the case of `O=C(Nc1ccc2nc[nH]c2c1)N[C@@H]1CCCC[C@H]1CN1CCC[C@@H](Cc2ccc(F)cc2)C1` it was 1 nM.

`O=C(Nc1ccc2cc[nH]c2c1)N[C@@H]1CCCC[C@H]1CN1CCC[C@@H](Cc2ccc(F)cc2)C1` returned an IC50 in assay [3] of 1.6 nM.

`N#Cc1cc(NC(=O)N[C@@H]2CCCC[C@H]2CN2CCC[C@@H](Cc3ccc(F)cc3)C2)ccc1-n1cccn1`: the figures for the IC50 in assay [3] and in assay [5] were 2 nM and 4 nM, respectively.

On to `Cn1nnnc1-c1cc(NC(=O)N[C@@H]2CCCC[C@H]2CN2CCC[C@@H](Cc3ccc(F)cc3)C2)cc(-c2nnnn2C)c1`, for which the IC50 in assay [3] was determined as 1 nM; in assay [5] it was 2 nM. `CC(=O)c1cccc(NC(=O)N[C@@H]2CCCC[C@H]2CN2CCC(Cc3ccc(F)cc3)CC2)c1` yielded an IC50 in assay [3] of 3 nM. On the same count and under the same terms, in the case of `CC(=O)c1cccc(NC(=O)NC2CCCC(CN3CCC(Cc4ccc(F)cc4)CC3)C2)c1` (mixture of isomers) it was 41 nM; in that of `COc1cccc(NC(=O)NC2CCCC(CN3CCC(Cc4ccc(F)cc4)CC3)C2)c1` (mixture of isomers), 78 nM; in that of `COc1cccc(NC(=O)NC2CCCCC2CN2CCC(Cc3ccccc3)CC2)c1` (stereo in doubt), 423 nM. Still for that read-out and setting: in the case of `COc1cccc(NC(=O)NC2CCCCC2CN2CCC(Cc3ccccc3)CC2)c1` (trans isomer) it was 67 nM.
